The source of these data is patent US9314536B2, “Compounds and methods for the treatment of EGFR positive diseases” (Bio-Thera Solutions, Ltd., Co., priority 2012, dated 2016).

The subject of series [1] is tubulin. The experiment in a line: HTS-Tubulin Polymerization Assay Kit, tubulin polymerization in vitro. Format: biochemical. To be noted: 1 μM stock, 10 μL added to 100 μL 4 mg/ml tubulin, 37° C., 405 nm; compared with the PBS buffer. The protocol:
The effect of 3AA-MDC, 206-3AA-MDC (206 is an anit-EGFR antibody containing a light chain with sequence shown in Seq ID 1 and a heavy chain with amino acid sequence shown in Seq ID 2, and it was prepared as described in example 7) and the metabolites (Cys-3AA-MDC and Lys-mcc-MDC) of prodrug antibody maytansinoid conjugates on the tubulin polymerization in vitro was assessed by HTS-Tubulin Polymerization Assay Kit (BK004P, Cytoskeleton, Inc., USA). According to the instruction of kit, pre-warm the 96-well plate to 37° C. for 30 min prior to starting the assay. At the same time, the spectrophotometer (SpectraMax, Molecular Devices, USA) was set as follow: wavelength, 405 nm; temperature, 37° C.; Kinetic, 31 cycles of 1 reading per minute. Make cold G-PEM buffer (990 μL General Tubulin Buffer+10 μL GTP Stock) and keep it on ice. Prepare 4 mg/mL tubulin, 1 μM L-3AA-MDC (N2′-deacetyl-N2′-(6-maleimido-1-oxo-hexyl)maytansine), 1 μM 206-3AA-MDC, 1 μM cys-3AA-MDC, 1 μM lys-mcc-MDC, 100 μM Paclitaxel, and 100 μM Nocodazole. Add 10 μL G-PEM, 3AA-MDC, 206-3AA-MDC, cys-3AA-MDC, lys-mcc-MDC, Paclitaxel, Nocodazole into the wells, and then add 100 μL 4 mg/ml tubulin to each well. Immediately place the plate into the spectrophotometer and start recording using the kinetic setup described above. […] Nocodazole, the tubulin polymerization inhibitor, was set as a negative control. […]

Series [2] concerns human acute lymphoblastic leukemia line C.E.M. To be noted: cited from earlier work.
For series [3] the following is noted: versus methotrexate, daunorubicin, and vincristine; cited from earlier work.

Regarding `COc1cc2cc(c1Cl)N(C)C(=O)C[C@H](OC(=O)[C@H](C)N(C)C(=O)CCSC1CC(=O)N(CC3CCC(C(=O)NCCCC[C@H](N)C(=O)O)CC3)C1=O)[C@]1(C)O[C@H]1[C@H](C)[C@@H]1C[C@@](O)(NC(=O)O1)[C@H](OC)/C=C/C=C(\C)C2` (stereo partly shown) [Lys-mcc-MDC], the “inhibition of tubulin polymerization” value in series [1] was “more significantly inhibited the tubulin polymerization”. Same read-out and setting: the same measure for `COc1cc2cc(c1Cl)N(C)C(=O)C[C@H](OC(=O)[C@H](C)N(C)C(=O)CCCCCN1C(=O)C=CC1=O)[C@]1(C)OC1[C@H](C)[C@@H]1C[C@@](O)(NC(=O)O1)[C@H](OC)/C=C/C=C(\C)C2` (stereo partly shown) [3AA-MDC, N2′-deacetyl-N2′-(6-maleimido-1-oxo-hexyl)-maytansine]: “more significantly inhibited the tubulin polymerization”. Take `COc1cc2cc(c1Cl)N(C)C(=O)C[C@H](OC(=O)[C@H](C)N(C)C(C)=O)[C@]1(C)O[C@H]1[C@H](C)[C@@H]1C[C@@](O)(NC(=O)O1)[C@H](OC)/C=C/C=C(\C)C2` [Maytansine]: the “inhibitory concentration (as low as)” value in series [2] is 10^−7 mg/mL. Further, the “fold more cytotoxic than conventional chemotherapeutic agents” value in series [3] is 100- to 1000 fold.
